Read-outs that look alike come from different tables or passages of the source.
How the values were obtained:
Format in all cases: cell-based
[1] = target: T1, human dopamine transporter (hDAT) (Homo sapiens, UniProt Q01959); test: Assay of monoamine uptake: inhibition of dopamine uptake
T1 construct: expressed in transfected cells
Description: (§1) The in vitro test for the inhibition of dopamine and serotonin uptake was performed in Chinese Hamster Ovary cells expressing the human dopamine transporter (hDAT) or the human serotonin transporter (hSERT). The in vitro test for the inhibition of noradrenaline uptake was performed in Madin Darby Canine Kidney Cells (MDCK) expressing the human noradrenaline transporter (hNET).
(§2) Briefly, cell lines stably overexpressing the appropriate human transporter were propagated and plated according to standard cell culture techniques. Following plating, cells were left to adhere for either one or two days. A 6-point serial dilution (normally 1 E-5M to 1E-10M) of test and reference compounds was prepared, added to the washed cells and incubated for 5 minutes at ambient temperature for dopamine or serotonin transporter overexpressing and 37°C for noradrenaline overexpressing cells. Next, a final concentration of 20 nM of appropriate neurotransmitter (mixture of [^3H]-neurotransmitter and non-labelled neurtoransmitter) was added and the cells were incubated for three or five minutes at ambient temperature for dopamine or serotonin transporter overexpressing cells or ten minutes at 37°C for noradrenaline overexpressing cells. Following termination of the assay, Microscint-20 was added directly to the cells and the amount of radioactivity taken up by the cells was estimated by scintillation counting.
(§3) pEC50 values indicating inhibition of monoamine uptake were calculated using standard curve fitting techniques.

[2] = target: T2, human noradrenaline transporter (hNET) (Homo sapiens, UniProt P23975); test: Assay of monoamine uptake: inhibition of noradrenaline uptake
T2 construct: expressed in transfected cells
Description: as §1, §2, §3

[3] = target: T3, human serotonin transporter (hSERT) (Homo sapiens, UniProt P31645); test: Assay of monoamine uptake: inhibition of serotonin uptake
T3 construct: expressed in transfected cells
Description: as §1, §2, §3

[4] = inhibition of dopamine uptake, Chinese Hamster Ovary cells expressing hDAT, 20 nM neurotransmitter ([3H]-labelled and non-labelled), ambient temperature, read-out: hDAT
[5] = inhibition of noradrenaline uptake, Madin Darby Canine Kidney Cells (MDCK) expressing hNET, 20 nM neurotransmitter ([3H]-labelled and non-labelled), 37°C, read-out: hNET
[6] = inhibition of serotonin uptake, Chinese Hamster Ovary cells expressing hSERT, 20 nM neurotransmitter ([3H]-labelled and non-labelled), ambient temperature, read-out: hSERT

T1 sequence (Q01959 whole entry): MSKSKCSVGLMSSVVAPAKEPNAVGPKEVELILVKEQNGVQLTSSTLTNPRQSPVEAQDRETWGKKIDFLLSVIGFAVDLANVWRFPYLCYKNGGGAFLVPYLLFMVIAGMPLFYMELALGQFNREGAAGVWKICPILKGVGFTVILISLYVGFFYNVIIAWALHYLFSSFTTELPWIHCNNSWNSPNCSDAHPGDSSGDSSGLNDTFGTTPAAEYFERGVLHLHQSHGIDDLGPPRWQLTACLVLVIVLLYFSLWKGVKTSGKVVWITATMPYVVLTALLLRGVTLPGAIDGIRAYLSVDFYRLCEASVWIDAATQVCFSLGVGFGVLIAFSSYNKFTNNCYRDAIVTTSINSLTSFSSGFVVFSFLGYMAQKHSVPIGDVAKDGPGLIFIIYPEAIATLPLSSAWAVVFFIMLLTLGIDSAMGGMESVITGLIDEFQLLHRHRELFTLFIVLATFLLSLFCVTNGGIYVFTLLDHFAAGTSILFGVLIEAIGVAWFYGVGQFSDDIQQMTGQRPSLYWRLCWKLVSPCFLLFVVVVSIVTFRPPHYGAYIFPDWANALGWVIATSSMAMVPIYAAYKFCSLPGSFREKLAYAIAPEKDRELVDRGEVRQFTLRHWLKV
T2 sequence (P23975 whole entry): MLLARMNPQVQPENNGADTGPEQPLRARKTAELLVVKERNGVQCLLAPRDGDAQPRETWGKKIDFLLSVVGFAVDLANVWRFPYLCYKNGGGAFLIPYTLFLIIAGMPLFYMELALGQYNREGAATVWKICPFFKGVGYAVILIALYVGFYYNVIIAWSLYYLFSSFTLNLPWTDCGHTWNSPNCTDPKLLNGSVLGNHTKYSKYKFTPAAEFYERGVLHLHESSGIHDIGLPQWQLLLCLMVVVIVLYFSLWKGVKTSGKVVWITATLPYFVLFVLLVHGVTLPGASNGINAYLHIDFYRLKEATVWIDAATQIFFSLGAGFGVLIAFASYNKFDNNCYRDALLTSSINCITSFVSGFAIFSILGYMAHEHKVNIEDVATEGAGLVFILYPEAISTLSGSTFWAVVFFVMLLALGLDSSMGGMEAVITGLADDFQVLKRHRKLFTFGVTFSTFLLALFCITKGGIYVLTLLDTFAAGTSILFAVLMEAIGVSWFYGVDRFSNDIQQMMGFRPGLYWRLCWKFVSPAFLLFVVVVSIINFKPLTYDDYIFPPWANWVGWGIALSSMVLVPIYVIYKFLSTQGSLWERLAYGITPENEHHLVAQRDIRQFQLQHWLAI
T3 sequence (P31645 whole entry): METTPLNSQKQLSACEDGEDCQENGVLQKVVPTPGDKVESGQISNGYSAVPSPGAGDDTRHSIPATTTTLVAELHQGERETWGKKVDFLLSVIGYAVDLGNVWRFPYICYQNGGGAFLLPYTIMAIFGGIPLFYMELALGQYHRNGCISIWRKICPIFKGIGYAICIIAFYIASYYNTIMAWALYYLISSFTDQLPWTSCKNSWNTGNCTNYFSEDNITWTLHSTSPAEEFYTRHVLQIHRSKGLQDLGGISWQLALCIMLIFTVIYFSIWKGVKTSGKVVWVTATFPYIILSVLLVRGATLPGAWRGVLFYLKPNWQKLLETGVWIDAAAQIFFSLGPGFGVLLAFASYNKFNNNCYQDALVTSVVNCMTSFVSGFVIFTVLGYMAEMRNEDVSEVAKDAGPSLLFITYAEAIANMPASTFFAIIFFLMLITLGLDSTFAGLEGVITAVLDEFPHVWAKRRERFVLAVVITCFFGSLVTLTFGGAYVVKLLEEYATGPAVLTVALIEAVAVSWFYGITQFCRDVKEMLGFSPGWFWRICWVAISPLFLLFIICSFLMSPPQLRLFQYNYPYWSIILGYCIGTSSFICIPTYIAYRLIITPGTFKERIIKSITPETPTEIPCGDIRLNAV

## N#Cc1ccc(-c2cc(C#N)cc(OC3CC4CCC(C3)N4)c2)nc1 (stereo not drawn) [Example IX.3, exo 6-(3-(8-Azabicyclo[3.2.1]oct-3-yloxy)-5-cyanophenyl)nicotinonitrile]
[1]; [4]
  EC50: > 1 µM
[2]; [5]
  EC50: > 1 µM
[3]; [6]
  EC50: < 0.1 µM

## FC(F)(F)c1ccccc1-c1cccc(OC2CC3CCC(C2)N3)c1 (stereo not drawn) [IV.8, 3-exo-(2'-Trifluoromethylbiphenyl-3-yloxy)-8-azabicyclo[3.2.1]octane]
[1]; [4]
  EC50: > 1 µM
[2]; [5]
  EC50: < 0.1 µM
[3]; [6]
  EC50: 0.1 to 1 µM

## FC(F)(F)c1ccc(OC2CC3CCC(C2)N3)cc1-c1ccccc1 (stereo not drawn) [VI.3, 3-exo-(6-Trifluoromethylbiphenyl-3-yloxy)-8-azabicyclo[3.2.1]octane]
[1]; [4]
  EC50: > 1 µM
[2]; [5]
  EC50: > 1 µM
[3]; [6]
  EC50: 0.1 to 1 µM

## N#Cc1ccc(-c2cc(C#N)cc(OC3CC4CCC(C3)N4)c2)cc1 (stereo not drawn) [VI.8, exo 5-(8-Azabicyclo[3.2.1]oct-3-yloxy)-biphenyl-3,4'-dicarbonitrile]
[1]; [4]
  EC50: > 1 µM
[2]; [5]
  EC50: > 1 µM
[3]; [6]
  EC50: < 0.1 µM

## Clc1cc(Oc2ccccc2)cc(O[C@@H]2C[C@H]3CC[C@@H](C2)N3)c1 [IV.19, 3-exo-(3-Chloro-5-phenoxyphenoxy)-8-azabicyclo[3.2.1]octane]
[1]; [4]
  EC50: < 0.1 µM
[2]; [5]
  EC50: < 0.1 µM
[3]; [6]
  EC50: > 1 µM

## c1ccc(Oc2cccc(OC3CC4CCC(C3)N4)c2)cc1 (stereo not drawn) [Example 111.5, 3-endo-(3-Phenoxyphenoxy)-8-azabicyclo[3.2.1]octane]
[1]
  EC50: < 0.1 µM
[2]
  EC50: 0.1 to 1 µM
[3]
  EC50: > 1 µM

## COc1cc(Oc2ccccc2)cc(OC2CC3CCC(C2)N3)c1F (stereo not drawn) [IV.9, 3-exo-(2-Fluoro-3-methoxy-5-phenoxyphenoxy)-8-azabicyclo[3.2.1]octane]
[1]; [4]
  EC50: < 0.1 µM
[2]; [5]
  EC50: < 0.1 µM
[3]; [6]
  EC50: > 1 µM

Reference: patent EP1957493B1, “8-AZABICYCLO[3.2.1]OCTANE DERIVATIVES USEFUL AS MONOAMINE REUPTAKE INHIBITORS” (N.V. Organon, priority 2005, dated 2007)
